Assay results: PMC10987501, “The antihyperglycemic potential of pyrazolobenzothiazine 1, 1-dioxide novel derivative in mice using integrated molecular pharmacological approach” (Scientific Reports, 2024)
Entries after “also recorded” stand apart in the source; their conditions may differ.

Columns and labels:
α-glucosidase [1] = assay: α-glucosidase inhibition assay (PNPG substrate); format: biochemical; settings: for α-glucosidase % inhibition: 10 μL (500 µM) sample
Description: To carry out this reaction, 10 μL (500 µM) of 10 mM sample solution (prepared in DMSO) was added to ELISA 96 microwell plate. Then, 40 μL of 0.5U/ml α glucosidase was mixed by adding 120 μL of 0.1M phosphate buffer with a pH value of 7.4. The solution was incubated at 37 °C for 5 min. The reaction proceeded further by adding 40 μL of 5 mM substrate solution (PNPG) and incubation was done for half an hour at 37 °C. After performing the incubation microplate reader was used to read the absorbance of the reaction mixture at 405 nm wavelength. […] The inhibition percentage of the sample and positive control were calculated using the following formula. Inhibition%=B-S/B∗100
(§1) At this point, the B and S denote absorbance for the blank and samples. Blank contains only DMSO instead of sample.

α-amylase [2] = assay: α-amylase inhibition assay (starch substrate, DNSA); format: biochemical
Description: ELISA plate was used for inhibition assay and it was loaded with 40 µL of the sample. Enzyme prepared in 0.02 M sodium phosphate buffer with pH 6.9 (40 µL) was further added to wells. The solution in wells was kept on incubation at 37 °C for 10 min. Moreover, 40 µL starch solution prepared in 1% DMSO was added to the solution and put on incubation for 10 min at 25 °C. At last, to stop the reaction, 100 µL of DNSA reagent was added to the solution. The mixture was put in a boiling water bath for 5 min and cooled down at room temperature after incubation. For dilution of the reaction mixture, 400 µL of distilled water was added to the solution, and the absorbance of the reaction mixture was measured at 540 nm wavelength. To calculate the percentage inhibition the following formula was used. Inhibition%=B-S/B∗100
as §1

α-glucosidase [3] = assay: Kinetics study (α-glucosidase), Lineweaver–Burk plot; format: biochemical
Description: (p-nitrophenyl-α-D-glucoside) was used for reaction. In addition, varying concentrations (0.1 mM, 0.25 mM, 0.5 mM, 0.75 mM, 1 mM) sample/inhibitor [V] was used. The type of inhibition was determined by the Lineweaver–Burk plot, while the Michaelis Menten equation was used to find the value of the inhibition constant. Vo=VmaxS/Km+S 1/Vo=Km+S/VmaxS=km/Vmax1/S+1/Vmax
(§2) The initial rate of reaction is indicated by V0, Michaelis Menten's constant signifies km, Km/Vmax represents to slope, and 1/Vmax denotes the y-intercept. The value of the inhibitory constant was calculated by plotting the secondary graph. Straight-line produced by slope versus [V] intersecting x-axis indicates ki value while ki′ was produced by intersecting line plotted between y-intercept and [V].

BALB/c mice [4] = assay: Biochemical investigation of blood in alloxan-induced diabetic mice; format: in vivo; set-up: Serum insulin level: unit not given here; settings: for Serum creatinine / Cholesterol in blood / HbA1c, % of glycated haemoglobin: treated group; for Serum creatinine: diabetic control 1.9 mg/dL; for Cholesterol in blood: diabetic control 120 mg/dL; for HbA1c, % of glycated haemoglobin: diabetic control 9%; for Serum insulin level: normal mice about 15 µM/L
Description: (§3) All experimental protocols adhered to the guidelines outlined in the NIH Guide for Care and Use of Laboratory Animals and the ARRIVE guidelines for animal experimentation. The Animal Care and Use Committee (ACUC) of Government College University Faisalabad (GCUF-2021-09) provided approval for the study. For in vivo study, BALB/c mice (weight 26–33 g) were acquired from the Department of Pharmacy and kept in the optimized environment (12 h dark, 12 h light) with a regular pellet diet and normal tab water. Diabetes induction in mice was done through a standard protocol reported by[21] with slight amendments. Alloxan monohydrate 150 mg/kg (following the body weight of mice) was liquified in normal saline and injected intraperitoneally in mice fasted for 16 h[22],[23]. Furthermore, screening of mice was done based on their blood glucose levels and mice with blood glucose levels more than 1.26 g/L were considered diabetic, and therefore taken for further experiment/examination. The mice diagnosed with diabetes were classified into five groups and five mice in each group. […] Two doses were selected because they indicate how the organism's response changes at different levels of exposure. This information is crucial for determining safe dosage levels for humans or animals.
For biochemical testing and histological examination, mice from each group were collected, and data were produced for different testing parameters, including fasting blood glucose, serum creatinine, serum insulin, HbA1c, triglyceride and cholesterol. A Countour TS glucometer was used to measure mice's fasting blood glucose levels. While Clinical Chemistry Reagents SRL (CCR) kit was used to measure serum creatinine and triglyceride levels. Moreover, the VITRO SCIENT kit was utilized to measure the serum insulin, cholesterol and HbA1c levels. For histological analysis, mice were sacrificed and their organs (liver, kidney and pancreas) were washed with cold saline and preserved in a 10% formalin solution. A compound microscope from the Department of Physiology, Government College University Faisalabad, was used for tissue investigation under a controlled and organized environment. Pictures of tissue samples were taken through OPTIKA software.

α-amylase [5] = assay: Kinetics study (α-amylase), Lineweaver–Burk plot; format: biochemical
Description: Varying concentrations (0.25%, 0.5%, 1%, 1.5%, 2%) of substrate [S] (starch) were used with constant enzyme concentration. Same as substrate, varying concentration (1 mM, 3 mM, 5 mM, 7 mM, 9 mM) of the inhibitor [V] was used. Lineweaver–Burk plots were used to determine the type of enzyme inhibition and the Michaelis Menten equation was used to find the value of inhibition constant. Vo=VmaxS/Km+S 1/Vo=Km+S/VmaxS=km/Vmax1/S+1/Vmax
as §2, with “initial reaction” for “initial”, “rate” for “rate of reaction”, “represents” for “represents to”

BALB/c mice [6] = assay: Histology of liver, kidney and pancreas and side effects in alloxan-induced diabetic mice; format: in vivo
Description: as §3, with “animals. […]” for “animals.”

For `C[C@H]1O[C@H](O[C@H]2[C@H](O)[C@@H](O)[C@@H](O[C@H]3[C@H](O)[C@@H](O)C(O)O[C@@H]3CO)O[C@@H]2CO)[C@H](O)[C@@H](O)[C@@H]1N[C@H]1C=C(CO)[C@@H](O)[C@H](O)[C@H]1O` (some centres unmarked) [Acarbose, reference compound], the α-glucosidase % inhibition (α-glucosidase [1]) was 37 ± 0.026%, the α-amylase % inhibition (α-amylase [2]) was 33 ± 0.042% and the “Type of inhibition, α-glucosidase” value (α-glucosidase [3]) was “competitive inhibition”. The Serum creatinine (BALB/c mice [4]) was 0.8 mg/dL, the Cholesterol in blood (BALB/c mice [4]) was 100 mg/dL and the “HbA1c, % of glycated haemoglobin” value (BALB/c mice [4]) was 5%.

`C/C(=N\NC(=O)C1=C(O)c2ccccc2S(=O)(=O)N1)c1ccccc1` [Compound S1, (E)-4-Hydroxy-N′-(1-phenylethylamine)-2H-benzo[e][1,2]thiazine-3-carbohydrazide1,1-dioxide] gave an IC50 (α-glucosidase [1]) of 3.91 µM, a α-glucosidase % inhibition (α-glucosidase [1]; 500 µM) of 55 ± 0.047% and an IC50 (α-amylase [2]) of 8.89 µM. The α-amylase % inhibition (α-amylase [2]) was 46 ± 0.091%, the “Type of inhibition, α-glucosidase” value (α-glucosidase [3]) was “competitive type of inhibition; also recorded: competitively” and the “Type of inhibition, α-amylase” value (α-amylase [5]) was “competitive type of inhibition; also recorded: competitively”. The Serum insulin level (BALB/c mice [4]; double dose (7.8 mg/kg)) was 30, the “Fasting blood sugar level” value (BALB/c mice [4]; single and double doses (3.9 and 7.8 mg/kg), diabetic control > 300 mg/dL) was 110 mg/dL and the Serum insulin level (BALB/c mice [4]; single dose (3.9 mg/kg)) was 25. The Serum creatinine (BALB/c mice [4]) was 0.6 mg/dL, the Cholesterol in blood (BALB/c mice [4]) was 85 mg/dL and the “HbA1c, % of glycated haemoglobin” value (BALB/c mice [4]) was 3%. For the same compound, the “Side effects in the mice model” value (BALB/c mice [6]; after administration to mice) was “no significant side effect” and the “Histology: necrosis / toxicity in liver, kidney and pancreas” value (BALB/c mice [6]; diabetic mice dissected after 21 days of treatment) was “low necrosis rate; also recorded: less toxic in the kidney, liver, and pancreas; also recorded: no toxicity within the liver and pancreatic tissues; also recorded: minimum rate of necrosis and toxicity”.
